The target in this test is purified human Hsp90. Description: Binding Assay: fluorescence polarization with BODIPY-labeled geldanamycin. The settings on record: BODIPY-GM 10 nM, Hsp90 30 nM. In outline: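 Fluorescence polarization competition with BODIPY-geldanamycin (10 nM final) and human Hsp90 (30 nM final) in HEPES-KOH pH 7.3 buffer with molybdate, NP-40, DTT; 2% DMSO, overnight at room temperature. Read 485/530 nm; percent inhibition from mP normalized to DMSO controls, fluorescent-compound points excluded.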

The text below walks through data of patent publication US7595401B2, “Therapeutic compounds and their use in cancer” (Myriad Pharmaceuticals, Inc., priority 2006, dated 2009).

As to `COc1ccc(OC)c(Sc2nc3c(N)ncnc3n2CCc2cccc(F)c2F)c1` [Example 145, 9-[2-(2,3-Difluoro-phenyl)-ethyl]-8-(2,5-dimethoxy-phenylsulfanyl)-9H-purin-6-ylamine], the 50% inhibitory concentration (IC50) was more than 3000 nM. In the case of `COc1ccc(OC)c(Sc2nc3c(N)ncn(CCc4cccc(F)c4F)c-3n2)c1` [Example 146, 3-[2-(2,3-difluoro-phenyl)-ethyl]-8-(2,5-dimethoxy-phenylsulfanyl)-3H-purin-6-ylamine], the “% Inhibition at 5 μM Compound Concentration” value (“% Inhibition” for short) is listed as 0%. In turn, `Nc1ncnc2c1nc(Sc1cc3c(cc1Br)OCO3)n2CCc1ccccc1F` [Example 147, 8-(6-Bromo-1,3-benzodioxol-5-ylsulfanyl)-9-[2-(2-fluoro-phenyl)-ethyl]-9H-purin-6-ylamine] yielded an IC50 of 44 nM.

For the compound `Nc1ncn(CCc2ccccc2F)c2nc(Sc3cc4c(cc3Br)OCO4)nc1-2` [Example 148, 8-(6-bromo-benzo[1,3]dioxol-5-ylsulfanyl)-3-[2-(2-fluoro-phenyl)-ethyl]-3H-purin-6-ylamine], the “% Inhibition” value is reported as 35%. Consider `Nc1ncnc2c1nc(Sc1cc3c(cc1Br)OCO3)n2CCc1ccccc1Br` [Example 149, 8-(6-Bromo-benzo[1,3]dioxol-5-ylsulfanyl)-9-[2-(2-bromo-phenyl)-ethyl]-9H-purin-6-ylamine], for which the IC50 was determined as 70 nM. Take `Nc1ncn(CCc2ccccc2Br)c2nc(Sc3cc4c(cc3Br)OCO4)nc1-2` [Example 150, 8-(6-bromo-benzo[1,3]dioxol-5-ylsulfanyl)-3-[2-(2-bromo-phenyl)-ethyl]-3H-purin-6-ylamine]: the “% Inhibition” value is 0%. The compound `Nc1ncnc2c1nc(Sc1cc3c(cc1Br)OCO3)n2CCc1cccnc1` [Example 151, 8-(6-Bromo-benzo[1,3]dioxol-5-ylsulfanyl)-9-(2-pyridin-3-yl-ethyl)-9H-purin-6-ylamine] returned a half-maximal inhibitory concentration (IC50) of 50 nM. That is a double-digit nanomolar value. As to `Nc1ncn(CCc2cccnc2)c2nc(Sc3cc4c(cc3Br)OCO4)nc1-2` [Example 152, 8-(6-bromo-benzo[1,3]dioxol-5-ylsulfanyl)-3-(2-pyridin-3-yl-ethyl)-3H-purin-6-ylamine], the “% Inhibition” value amounted to 20%.

`Nc1ncnc2c1nc(Sc1cc3c(cc1Br)OCO3)n2CCc1cccc(I)c1` [Example 153, 8-(6-Bromo-benzo[1,3]dioxol-5-ylsulfanyl)-9-[2-(3-iodo-phenyl)-ethyl]-9H-purin-6-ylamine] showed an IC50 of 600 nM. Consider `Nc1ncn(CCc2cccc(I)c2)c2nc(Sc3cc4c(cc3Br)OCO4)nc1-2` [Example 154, 8-(6-Bromo-benzo[1,3]dioxol-5-ylsulfanyl)-3-[2-(3-iodo-phenyl)-ethyl]-3H-purin-6-ylamine], for which the “% Inhibition” value was more than 10%. As for `Cc1ccccc1CCn1c(Sc2cc3c(cc2Br)OCO3)nc2c(N)ncnc21` [Example 155, 8-(6-Bromo-benzo[1,3]dioxol-5-ylsulfanyl)-9-(2-o-tolyl-ethyl)-9H-purin-6-ylamine], the half-maximal inhibitory concentration (IC50) came to 95 nM. Take `Cc1ccccc1CCn1cnc(N)c2nc(Sc3cc4c(cc3Br)OCO4)nc1-2` [Example 156, 8-(6-bromo-benzo[1,3]dioxol-5-ylsulfanyl)-3-(2-o-tolyl-ethyl)-3H-purin-6-ylamine]: the “% Inhibition” value worked out at 16%. For `Nc1ncnc2c1nc(Sc1cc3c(cc1Br)OCO3)n2CCc1cccc2ccccc12` [Example 157, 8-(6-Bromo-benzo[1,3]dioxol-5-ylsulfanyl)-9-(2-naphthalen-1-yl-ethyl)-9H-purin-6-ylamine], the “% Inhibition” value amounted to 58% and the IC50 came to 500 nM.

On to `Nc1ncn(CCc2cccc3ccccc23)c2nc(Sc3cc4c(cc3Br)OCO4)nc1-2` [Example 158, 8-(6-bromo-benzo[1,3]dioxol-5-ylsulfanyl)-3-(2-naphthalen-1-yl-ethyl)-3H-purin-6-ylamine], for which the “% Inhibition” value is recorded as 0%.

For `CC(=O)c1ccc(CCn2c(Sc3cc4c(cc3Br)OCO4)nc3c(N)ncnc32)cc1` [Example 159, 1-(4-{2-[6-Amino-8-(6-bromo-benzo[1,3]dioxol-5-ylsulfanyl)-purin-9-yl]-ethyl}-phenyl)-ethanone], the “% Inhibition” value is on record as 63% and the IC50 came out at 800 nM. Consider `CC(=O)c1ccc(CCn2cnc(N)c3nc(Sc4cc5c(cc4Br)OCO5)nc2-3)cc1` [Example 160, 1-(4-{2-[6-amino-8-(6-bromo-benzo[1,3]dioxol-5-ylsulfanyl)-purin-3-yl]-ethyl}-phenyl)-ethanone], for which the “% Inhibition” value came to 0%.

As to `Nc1ncnc2c1nc(Sc1cc3c(cc1Br)OCO3)n2CCc1cccc(F)c1F` [Example 161, 8-(6-Bromo-benzo[1,3]dioxol-5-ylsulfanyl)-9-[2-(2,3-difluoro-phenyl)-ethyl]-9H-purin-6-ylamine], the “% Inhibition” value was 17% and the IC50 came to 320 nM. For the compound `Nc1ncn(CCc2cccc(F)c2F)c2nc(Sc3cc4c(cc3Br)OCO4)nc1-2` [Example 162, 8-(6-bromo-benzo[1,3]dioxol-5-ylsulfanyl)-3-[2-(2,3-difluoro-phenyl)-ethyl]-3H-purin-6-ylamine], the “% Inhibition” value was 0%. On to `Cc1ccc(CCn2c(Sc3cc4c(cc3Br)OCO4)nc3c(N)ncnc32)cc1` [Example 163, 8-(6-Bromo-benzo[1,3]dioxol-5-ylsulfanyl)-9-(2-p-tolyl-ethyl)-9H-purin-6-ylamine], for which the “% Inhibition” value is given as more than 10%. Same read-out and setting: the same measure for `Cc1ccc(CCn2cnc(N)c3nc(Sc4cc5c(cc4Br)OCO5)nc2-3)cc1` [Example 164, 8-(6-bromo-benzo[1,3]dioxol-5-ylsulfanyl)-3-(2-p-tolyl-ethyl)-3H-purin-6-ylamine]: 0%. Consider `Nc1ncnc2c1nc(Sc1cc3c(cc1Br)OCO3)n2CCc1cccc(C(F)(F)F)c1` [Example 165, 8-(6-Bromo-benzo[1,3]dioxol-5-ylsulfanyl)-9-[2-(3-trifluoromethyl-phenyl)-ethyl]-9H-purin-6-ylamine], for which the “% Inhibition” value is 60% and the IC50 came out at 300 nM. In the case of `Nc1ncn(CCc2cccc(C(F)(F)F)c2)c2nc(Sc3cc4c(cc3Br)OCO4)nc1-2` [Example 166, 8-(6-Bromo-benzo[1,3]dioxol-5-ylsulfanyl)-3-[2-(3-trifluoromethyl-phenyl)-ethyl]-3H-purin-6-ylamine], the “% Inhibition” value stood at 0%. Consider `COc1ccc(OC)c(Sc2nc3c(N)ncnc3n2CCc2ccc3c(c2)OCO3)c1` [Example 167, 9-(2-Benzo[1,3]dioxol-5-yl-ethyl)-8-(2,5-dimethoxy-phenylsulfanyl)-9H-purin-6-ylamine], for which the “% Inhibition” value worked out at 44% and the IC50 is more than 25000 nM. Take `COc1ccc(OC)c(Sc2nc3c(N)ncn(CCc4ccc5c(c4)OCO5)c-3n2)c1` [Example 168, 3-(2-benzo[1,3]dioxol-5-yl-ethyl)-8-(2,5-dimethoxy-phenylsulfanyl)-3H-purin-6-ylamine]: the “% Inhibition” value worked out at 0%. As to `COc1ccc(OC)c(Sc2nc3c(N)ncnc3n2CCC2CCCCC2)c1` [Example 169, 9-(2-Cyclohexyl-ethyl)-8-(2,5-dimethoxyphenyl-sulfanyl)-9H-purin-6-ylamine], the “% Inhibition” value is 37% and the IC50 amounted to 470 nM. On to `COc1ccc(OC)c(Sc2nc3c(N)ncn(CCC4CCCCC4)c-3n2)c1` [Example 170, 3-(2-cyclohexyl-ethyl)-8-(2,5-dimethoxy-phenylsulfanyl)-3H-purin-6-ylamine], for which the “% Inhibition” value was 3%. In the case of `Nc1ncnc2c1nc(Sc1cc3c(cc1Br)OCO3)n2CCc1ccc(-c2ccccc2)cc1` [Example 171, 9-(2-Biphenyl-4-yl-ethyl)-8-(6-bromo-benzo[1,3]dioxol-5-ylsulfanyl)-9H-purin-6-ylamine], the IC50 was more than 25000 nM. For the compound `Nc1ncn(CCc2ccc(-c3ccccc3)cc2)c2nc(Sc3cc4c(cc3Br)OCO4)nc1-2` [Example 172, 3-(2-biphenyl-4-yl-ethyl)-8-(6-bromo-benzo[1,3]dioxol-5-ylsulfanyl)-3H-purin-6-ylamine], the “% Inhibition” value is on record as more than 10%.

For the compound `Nc1ncnc2c1nc(Sc1cc3c(cc1Br)OCO3)n2CCC1CCCCC1` [Example 173, 8-(6-Bromo-benzo[1,3]dioxol-5-ylsulfanyl)-9-(2-cyclohexyl-ethyl)-9H-purin-6-ylamine], the “% Inhibition” value is 44% and the concentration for half-maximal inhibition (IC50) is more than 25000 nM. Regarding `Nc1ncn(CCC2CCCCC2)c2nc(Sc3cc4c(cc3Br)OCO4)nc1-2` [Example 174, 8-(6-bromo-benzo[1,3]dioxol-5-ylsulfanyl)-3-(2-cyclohexyl-ethyl)-3H-purin-6-ylamine], the “% Inhibition” value is 37% and the half-maximal inhibitory concentration (IC50) is more than 25000 nM. Taken in the same sequence, the figures for `COc1ccc(OC)c(Sc2nc3c(N)ncnc3n2CCc2ccc(S(=O)(=O)O)cc2)c1` [Example 175, 4-{2-[6-Amino-8-(2,5-dimethoxy-phenylsulfanyl)-purin-9-yl]-ethyl}-benzenesulfonic acid] were 46% and 14000 nM.

As for `COc1ccc(OC)c(Sc2nc3c(N)ncn(CCc4ccc(S(=O)(=O)O)cc4)c-3n2)c1` [Example 176, 4-{2-[6-amino-8-(2,5-dimethoxy-phenylsulfanyl)-purin-3-yl]-ethyl}-benzenesulfonic acid], the “% Inhibition” value worked out at 6%. The same measure, in the same setting: the same measure for `Nc1ncnc2c1nc(Sc1cc3c(cc1Br)OCO3)n2CC(O)c1ccc(Cl)cc1Cl` (stereo not shown) [Example 177, 2-[6-Amino-8-(6-bromo-benzo[1,3]dioxol-5-ylsulfanyl)-purin-9-yl]-1-(2,4-dichloro-phenyl)-ethanol]: 0%. On the same count and under the same terms, to `Nc1ncn(CC(O)c2ccc(Cl)cc2Cl)c2nc(Sc3cc4c(cc3Br)OCO4)nc1-2` (stereo not shown) [Example 178, 2-[6-amino-8-(6-bromo-benzo[1,3]dioxol-5-ylsulfanyl)-purin-3-yl]-1-(2,4-dichloro-phenyl)-ethanol] belongs 9%.

Usually IC50 stands for the concentration that inhibits the measured activity by half. In general, % Inhibition refers to the relative decrease from the control value, in per cent.
